Measurements as given in US4861865A, “Novel antithrombin peptide” (Washington University, priority 1989, dated 1989).

Biological target: T1, human thrombin (Homo sapiens, UniProt P00734)
T1 construct: human thrombin, bovine thrombin, and Ancrod; purchased Sigma Chemical
Test: Fibrinogen clotting assay (fibrometer) with thrombin
Type: biochemical
Details: final concentration of 10 U/ml
Experimental: Fibrinogen clotting times (S=seconds) in the presence of varying concentrations (μM) of the peptide were determined with a fibrometer following addition of thrombin. Each concentration of peptide was assayed in triplicate. Error bars indicate standard deviations.
All reagents were equilibrated to 37° C. before mixing.

Heparin
effect on clotting time: no effect on clotting time
